This is an account of results in patent US20260317324A1, “BIFUNCTIONAL COMPOUNDS FOR DEGRADING BRAF VIA UBIQUITIN PROTEOSOME PATHWAY” (Nurix Therapeutics, Inc., priority 2023, published 2026).

Bounds are passed on as bounds.

Format in all cases: cell-based
One experiment addresses T1, BRAF V600E (Homo sapiens, UniProt P15056, V600E).
T1 construct: endogenous C-terminal HiBiT fusion tag on BRAF V600E allele; endogenous in cells; host or cells: A375 clone 1F10 (CRISPR-Cas9 knock-in of the HiBiT tag; parental A375 from ATCC)
Description: BRAF HiBiT degradation assay, C-terminal HiBiT-tagged BRAF V600E A375 cells (clone 1F10), Nano-Glo HiBiT Lytic assay. The conditions noted are these: for Dmax: A-375. The essentials: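 A375 cells with CRISPR knock-in C-terminal HiBiT on endogenous BRAF V600E (clone 1F10) were seeded and cultured 24 h at 37 °C, then dosed with an 11-point half-log series (1 μM to 0.01 nM, duplicate, 0.2% DMSO). Lytic HiBiT luminescence gave % protein remaining; DC50 was the fitted concentration at 50%.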
(The HiBiT peptide binds its large partner to form an active luciferase.)

Another experiment concerns the target T2, BRAF D594G (Homo sapiens, UniProt P15056, D594G).
T2 construct: Horizon Discovery (HCT-116 BRAF−/− cells); host or cells: HCT-116 BRAF−/− cells, clone 63, lentiviral transduction
In words: BRAF HiBiT degradation assay, C-terminal HiBiT-tagged BRAF D594G overexpressed in HCT-116 BRAF−/− cells (clone 63), Nano-Glo HiBiT Lytic assay. In short, it runs like this:
(§1)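 HCT-116 BRAF−/− cells stably expressing the tagged mutant were seeded at 3,000 cells/well and grown 24 h at 37 °C before an 11-point half-log series from 1 μM to 0.01 nM, run in duplicate at 0.2% DMSO. Lytic HiBiT luminescence gave % protein remaining versus DMSO controls; DC50 was the fitted concentration at 50%.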

A further experiment deals with T3, BRAF G466V (Homo sapiens, UniProt P15056, G466V).
T3 construct: Horizon Discovery (HCT-116 BRAF−/− cells); host or cells: HCT-116 BRAF−/− cells, clone 8, lentiviral transduction
T3 sequence (P15056 whole entry G466V): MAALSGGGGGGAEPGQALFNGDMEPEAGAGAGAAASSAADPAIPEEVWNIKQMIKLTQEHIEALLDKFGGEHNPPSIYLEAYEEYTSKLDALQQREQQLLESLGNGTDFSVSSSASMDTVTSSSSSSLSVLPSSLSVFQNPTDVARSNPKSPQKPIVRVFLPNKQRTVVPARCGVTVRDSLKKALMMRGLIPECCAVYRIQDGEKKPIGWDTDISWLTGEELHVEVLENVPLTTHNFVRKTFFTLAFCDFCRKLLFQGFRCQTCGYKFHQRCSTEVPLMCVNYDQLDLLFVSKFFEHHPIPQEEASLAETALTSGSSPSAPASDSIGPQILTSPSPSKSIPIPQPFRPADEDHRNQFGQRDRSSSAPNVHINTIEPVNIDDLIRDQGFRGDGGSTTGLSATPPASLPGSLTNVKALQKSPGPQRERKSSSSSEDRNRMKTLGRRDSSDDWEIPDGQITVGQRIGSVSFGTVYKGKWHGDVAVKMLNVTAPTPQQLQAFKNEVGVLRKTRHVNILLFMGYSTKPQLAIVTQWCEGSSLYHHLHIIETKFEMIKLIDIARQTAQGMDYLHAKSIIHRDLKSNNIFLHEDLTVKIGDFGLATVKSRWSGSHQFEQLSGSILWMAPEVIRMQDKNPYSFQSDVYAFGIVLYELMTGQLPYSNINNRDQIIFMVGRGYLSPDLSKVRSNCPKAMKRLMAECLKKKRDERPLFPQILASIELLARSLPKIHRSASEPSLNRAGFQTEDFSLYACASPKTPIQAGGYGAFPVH
In words: BRAF HiBiT degradation assay, C-terminal HiBiT-tagged BRAF G466V overexpressed in HCT-116 BRAF−/− cells (clone 8), Nano-Glo HiBiT Lytic assay. In short, it runs like this:
as §1

The target in a further experiment is T4, BRAF G469A (Homo sapiens, UniProt P15056, G469A).
T4 construct: Horizon Discovery (HCT-116 BRAF−/− cells); host or cells: HCT-116 BRAF−/− cells, clone 34, lentiviral transduction
T4 sequence (P15056 whole entry G469A): as the sequence (P15056 whole entry G466V) above, with V466G, G469A counted along it
In words: BRAF HiBiT degradation assay, C-terminal HiBiT-tagged BRAF G469A overexpressed in HCT-116 BRAF−/− cells (clone 34), Nano-Glo HiBiT Lytic assay. The essentials:
as §1

Where [1] appears, read: A375 (BRAF V600E, Class 1), DC50 at 50% degradation.
[2] abbreviates: A375 (BRAF V600E, Class 1), observed Dmax, % protein degraded relative to DMSO control.
The mark [3] stands for this setting: BRAF D594G (Class 3), HCT-116 BRAF−/− cells, DC50 at 50% degradation.
[4] abbreviates: BRAF D594G (Class 3), HCT-116 BRAF−/− cells, observed Dmax relative to DMSO control.
[5] abbreviates: BRAF G466V (Class 3), HCT-116 BRAF−/− cells, DC50 at 50% degradation.
Setting [6] is: BRAF G466V (Class 3), HCT-116 BRAF−/− cells, observed Dmax relative to DMSO control.
Where [7] appears, read: BRAF G469A (Class 2), HCT-116 BRAF−/− cells, DC50 at 50% degradation.
The mark [8] stands for this setting: BRAF G469A (Class 2), HCT-116 BRAF−/− cells, observed Dmax relative to DMSO control.
Setting [9] is: A375 (BRAF V600E), DC50 at 50%: fitted conc. at Y=50.
The mark [10] stands for this setting: A375 (BRAF V600E), percentage protein degraded at maximal compound effect relative to DMSO.
Setting [11] is: BRAF D594G, DC50 at 50%: fitted conc. at Y=50.
[12] abbreviates: HCT-116, BRAF D594G, percentage protein degraded at maximal compound effect relative to DMSO.
[13] abbreviates: BRAF G466V, DC50 at 50%: fitted conc. at Y=50.
Setting [14] is: HCT-116, BRAF G466V, percentage protein degraded at maximal compound effect relative to DMSO.
Where [15] appears, read: Class 2, BRAF G469A, DC50 at 50%: fitted conc. at Y=50.
Setting [16] is: HCT-116, Class 2, BRAF G469A, percentage protein degraded at maximal compound effect relative to DMSO.

T1 sequence (P15056 whole entry V600E, the tested form may be a part): as the sequence (P15056 whole entry G466V) above, with V466G, V600E counted along it
T2 sequence (P15056 whole entry D594G): as the sequence (P15056 whole entry G466V) above, with V466G, D594G counted along it

In the case of `O=C1CC[C@H](c2ccc(N3CCC(CN4CCN(c5ccc(-n6cc(-c7cc(Cl)cc(NS(=O)(=O)N8CC[C@@H](F)C8)c7F)c(-c7ccncc7)n6)cc5)CC4)CC3)cc2)C(=O)N1` [Compound 291, (3R)—N-{5-chloro-3-[1-(4-{4-[(1-{4-[(3R)-2,6-dioxopiperidin-3-yl]phenyl}piperidin-4-yl)methyl]piperazin-1-yl}phenyl)-3-(pyridin-4-yl)-1H-pyrazol-4-yl]-2-fluorophenyl}-3-fluoropyrrolidine-1-sulfonamide], the DC50 at BRAF V600E (setting [1]), on BRAF D594G (setting [3]), at BRAF G466V (setting [5]) and at BRAF G469A (setting [7]) was < 0.01 µM each time. The Dmax on BRAF V600E (setting [2]), at BRAF D594G (setting [4]), on BRAF G466V (setting [6]) and on BRAF G469A (setting [8]) was > 70% throughout.

In the case of `O=C1CCC(c2ccc(N3CCC(CN4CCN(c5ccc(-n6cc(-c7cc(F)cc(NS(=O)(=O)N8CC[C@@H](F)C8)c7F)c(-c7ccncc7)n6)nc5)CC4)CC3)nc2)C(=O)N1` (mixture of isomers) [Compound 304, (3R)—N-{3-[1-(5-{4-[(1-{5-[(3RS)-2,6-dioxopiperidin-3-yl]pyridin-2-yl}piperidin-4-yl)methyl]piperazin-1-yl}pyridin-2-yl)-3-(pyridin-4-yl)-1H-pyrazol-4-yl]-2,5-difluorophenyl}-3-fluoropyrrolidine-1-sulfonamide], the half-maximal degradation concentration (DC50) (in general, the concentration at which degradation of the target reaches its halfway point) on BRAF V600E (setting [1]) was < 0.01 µM; on BRAF D594G (setting [3]) it was < 0.01 µM; on BRAF G466V (setting [5]) it was < 0.01 µM; at BRAF G469A (setting [7]) it was 0.01 to 0.05 µM. Also, the Dmax on BRAF V600E (setting [2]), on BRAF D594G (setting [4]), on BRAF G466V (setting [6]) and at BRAF G469A (setting [8]) was > 70% in each case.

For the compound `O=C1CCN(c2ccc(N3CCC(CN4CCN(c5ccc(-n6cc(-c7cc(Cl)cc(NS(=O)(=O)N8CC(F)C8)c7F)c(-c7ccncc7)n6)c(F)c5)CC4)CC3)cc2)C(=O)N1` [Compound 339, N-[5-chloro-3-(1-{4-[4-({1-[4-(2,4-dioxo-1,3-diazinan-1-yl)phenyl]piperidin-4-yl}methyl)piperazin-1-yl]-2-fluorophenyl}-3-(pyridin-4-yl)-1H-pyrazol-4-yl)-2-fluorophenyl]-3-fluoroazetidine-1-sulfonamide], the DC50 is < 0.01 µM on BRAF V600E (setting [1]), 0.01 to 0.05 µM on BRAF D594G (setting [3]), < 0.01 µM at BRAF G466V (setting [5]) and > 0.5 µM on BRAF G469A (setting [7]). In addition, the Dmax – broadly, the greatest extent of degradation seen – at BRAF V600E (setting [2]) was > 70%; on BRAF D594G (setting [4]), 30 to 70%; at BRAF G466V (setting [6]), 30 to 70%; on BRAF G469A (setting [8]), < 30%.

In the case of `CCCS(=O)(=O)Nc1cccc(-c2nc(C(C)(C)C)sc2-c2ccnc(NCC(C)(C)C3CCN(CC4CCN(c5ccc(C(=O)N[C@H]6CCC(=O)NC6=O)nc5)CC4)CC3)n2)c1F` [Compound 146, 5-{4-[(4-{1-[(4-{2-tert-butyl-4-[2-fluoro-3-(propane-1-sulfonamido)phenyl]-1,3-thiazol-5-yl}pyrimidin-2-yl)amino]-2-methylpropan-2-yl}piperidin-1-yl)methyl]piperidin-1-yl}-N-[(3S)-2,6-dioxopiperidin-3-yl]pyridine-2-carboxamide], the DC50 at BRAF V600E (setting [9]) is 0.05 to 0.5 µM; at BRAF D594G (setting [11]), > 0.5 µM; on BRAF G466V (setting [13]), < 0.01 µM; at BRAF G469A (setting [15]), > 0.5 µM. Besides, the Dmax on BRAF V600E (setting [10]), on BRAF D594G (setting [12]), at BRAF G466V (setting [14]) and on BRAF G469A (setting [16]) was 30 to 70% throughout.

As for `CCCS(=O)(=O)Nc1cccc(-c2nc(C3CCN(C(=O)C4(C)CCN(C(=O)CC5CCN(c6ccc(C7CCC(=O)NC7=O)cn6)CC5)CC4)CC3)sc2-c2ccnc(N)n2)c1F` (racemic) [Compound 194, Rac-N-{3-[5-(2-aminopyrimidin-4-yl)-2-(1-{1-[2-(1-{5-[(3R)-2,6-dioxopiperidin-3-yl]pyridin-2-yl}piperidin-4-yl)acetyl]-4-methylpiperidine-4-carbonyl}piperidin-4-yl)-1,3-thiazol-4-yl]-2-fluorophenyl}propane-1-sulfonamide], the DC50 on BRAF V600E (setting [9]) is < 0.01 µM; at BRAF D594G (setting [11]) it was > 0.5 µM; at BRAF G466V (setting [13]), > 0.5 µM; on BRAF G469A (setting [15]) it was > 0.5 µM. Also, the Dmax at BRAF V600E (setting [10]) is > 70%; at BRAF D594G (setting [12]), 30 to 70%; at BRAF G466V (setting [14]), 30 to 70%; at BRAF G469A (setting [16]), < 30%.

`CCCS(=O)(=O)Nc1cccc(-c2nc(C(C)(C)C)sc2-c2ccnc(Nc3cccc(OC4CCN(C(=O)C5CCN(c6cc(C7CCC(=O)NC7=O)ccn6)CC5)CC4)c3)n2)c1F` (racemic) [Compound 100, Rac-N-[3-(2-tert-butyl-5-{2-[(3-{[1-(1-{4-[(3R)-2,6-dioxopiperidin-3-yl]pyridin-2-yl}piperidine-4-carbonyl)piperidin-4-yl]oxy}phenyl)amino]pyrimidin-4-yl}-1,3-thiazol-4-yl)-2-fluorophenyl]propane-1-sulfonamide]: the DC50 at BRAF V600E (setting [9]) was < 0.01 µM; at BRAF D594G (setting [11]), 0.05 to 0.5 µM; on BRAF G466V (setting [13]), > 0.5 µM; at BRAF G469A (setting [15]), > 0.5 µM. The Dmax is > 70% on BRAF V600E (setting [10]), 30 to 70% on BRAF D594G (setting [12]), < 30% on BRAF G466V (setting [14]) and < 30% on BRAF G469A (setting [16]).

In the case of `CCCS(=O)(=O)Nc1cccc(-c2nc(C(C)(C)C)sc2-c2ccnc(Nc3cnn(CC4CCN(C(=O)C[C@@H]5CCN(c6ccc(C7CCC(=O)NC7=O)cc6)C5)CC4)c3)n2)c1F` (mixture of isomers) [Compound 112, N-(3-{2-tert-butyl-5-[2-({1-[(1-{2-[(3S)-1-{4-[(3RS)-2,6-dioxopiperidin-3-yl]phenyl}pyrrolidin-3-yl]acetyl}piperidin-4-yl)methyl]-1H-pyrazol-4-yl}amino)pyrimidin-4-yl]-1,3-thiazol-4-yl}-2-fluorophenyl)propane-1-sulfonamide], the DC50 on BRAF V600E (setting [9]) is < 0.01 µM; on BRAF D594G (setting [11]), > 0.5 µM; at BRAF G466V (setting [13]), > 0.5 µM; at BRAF G469A (setting [15]) it was > 0.5 µM. For the same compound, the Dmax was 30 to 70% at BRAF V600E (setting [10]), 30 to 70% at BRAF D594G (setting [12]), < 30% at BRAF G466V (setting [14]) and < 30% on BRAF G469A (setting [16]).

On to `C[C@@H]1CN(c2ccc(-n3cc(-c4cc(Cl)cc(NS(=O)(=O)N5CC[C@@H](F)C5)c4F)c(-c4ccncc4)n3)cc2)CCN1CC1CCN(c2ccc([C@H]3CCC(=O)NC3=O)cc2)CC1` [Compound 317, (3R)—N-[5-chloro-3-(1-{4-[(3R)-4-[(1-{4-[(3R)-2,6-dioxopiperidin-3-yl]phenyl}piperidin-4-yl)methyl]-3-methylpiperazin-1-yl]phenyl}-3-(pyridin-4-yl)-1H-pyrazol-4-yl)-2-fluorophenyl]-3-fluoropyrrolidine-1-sulfonamide], for which the DC50 on BRAF V600E (setting [1]), on BRAF D594G (setting [3]), at BRAF G466V (setting [5]) and at BRAF G469A (setting [7]) was < 0.01 µM each time. In addition, the Dmax on BRAF V600E (setting [2]) was > 70%; at BRAF D594G (setting [4]), 30 to 70%; on BRAF G466V (setting [6]) it was > 70%; on BRAF G469A (setting [8]) it was > 70%.

Turning to `CCCS(=O)(=O)Nc1cccc(-c2nc(C(C)(C)C)sc2-c2ccnc(Nc3cccc(OC4CCN(CC[C@H]5CCN(c6ccc(C7CCC(=O)NC7=O)cn6)C5)CC4)c3)n2)c1F` (mixture of isomers) [Compound 69, N-(3-{2-tert-butyl-5-[2-({3-[(1-{2-[(3S)-1-{5-[(3RS)-2,6-dioxopiperidin-3-yl]pyridin-2-yl}pyrrolidin-3-yl]ethyl}piperidin-4-yl)oxy]phenyl}amino)pyrimidin-4-yl]-1,3-thiazol-4-yl}-2-fluorophenyl)propane-1-sulfonamide], the DC50 is 0.01 to 0.05 µM on BRAF V600E (setting [9]), > 0.5 µM at BRAF D594G (setting [11]), > 0.5 µM on BRAF G466V (setting [13]) and > 0.5 µM on BRAF G469A (setting [15]). Also, the Dmax at BRAF V600E (setting [10]) was > 70%; on BRAF D594G (setting [12]), 30 to 70%; on BRAF G466V (setting [14]), 30 to 70%; on BRAF G469A (setting [16]) it was < 30%.
